Experimental data taken from US11739098B2 (BRISTOL-MYERS SQUIBB COMPANY, priority 2017, dated 2023).

How the values were obtained:
Assay type in all cases: cell-based
[1] = target: T1, human TLR7 (Homo sapiens, UniProt Q9NYK1); assay: TLR7 inhibition reporter assay (HEK-Blue cells, SEAP reporter, gardiquimod stimulation); conditions: HEK-Blue cells overexpressing human TLR7, SEAP reporter, gardiquimod 7.5 μM
T1 construct: host or cells: HEK-Blue cells (HEK293-derived reporter line)
T1 sequence (Q9NYK1 27-1049): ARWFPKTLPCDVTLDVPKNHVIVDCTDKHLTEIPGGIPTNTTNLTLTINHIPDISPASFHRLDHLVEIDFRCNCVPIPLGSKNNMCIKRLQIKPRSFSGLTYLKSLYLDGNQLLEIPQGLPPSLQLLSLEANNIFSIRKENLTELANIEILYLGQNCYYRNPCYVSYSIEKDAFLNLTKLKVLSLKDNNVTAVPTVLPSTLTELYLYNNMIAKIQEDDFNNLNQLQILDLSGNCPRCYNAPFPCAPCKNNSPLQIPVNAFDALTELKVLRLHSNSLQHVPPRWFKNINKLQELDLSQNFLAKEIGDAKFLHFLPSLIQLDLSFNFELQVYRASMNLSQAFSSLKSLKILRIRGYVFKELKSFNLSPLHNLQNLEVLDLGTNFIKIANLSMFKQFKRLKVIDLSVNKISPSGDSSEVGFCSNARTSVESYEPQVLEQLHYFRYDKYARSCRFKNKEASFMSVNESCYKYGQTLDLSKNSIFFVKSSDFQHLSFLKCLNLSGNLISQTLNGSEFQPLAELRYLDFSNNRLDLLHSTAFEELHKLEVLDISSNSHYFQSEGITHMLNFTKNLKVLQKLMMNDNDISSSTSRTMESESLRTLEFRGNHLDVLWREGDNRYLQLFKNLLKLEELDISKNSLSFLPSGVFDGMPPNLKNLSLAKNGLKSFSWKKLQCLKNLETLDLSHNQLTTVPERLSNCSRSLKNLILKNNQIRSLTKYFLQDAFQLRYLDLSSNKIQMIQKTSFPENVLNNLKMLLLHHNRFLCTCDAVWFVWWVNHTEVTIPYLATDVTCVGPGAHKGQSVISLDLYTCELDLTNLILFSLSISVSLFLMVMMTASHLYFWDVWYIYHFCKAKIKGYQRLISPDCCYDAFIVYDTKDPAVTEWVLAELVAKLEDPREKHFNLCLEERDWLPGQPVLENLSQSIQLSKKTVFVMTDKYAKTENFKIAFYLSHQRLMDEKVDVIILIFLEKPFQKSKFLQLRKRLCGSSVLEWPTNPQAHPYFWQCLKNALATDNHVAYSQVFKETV
Procedure, shortened: (§1)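 After 22 h at 37 °C, SEAP secretion was measured from human TLR7-, TLR8- or TLR9-expressing HEK-Blue reporter cells given compound (0.05 nM–50 μM) 30 min before agonist: 7.5 μM gardiquimod, 15.9 μM R848 or 5 nM ODN2006 respectively. Percent inhibition referenced to agonist-plus-DMSO and known-inhibitor wells.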

[2] = target: T2, human TLR8 (Homo sapiens, UniProt Q9NR97); assay: TLR8 inhibition reporter assay (HEK-Blue cells, SEAP reporter, R848 stimulation); conditions: HEK-Blue cells overexpressing human TLR8, SEAP reporter, R848 15.9 μM
T2 construct: host or cells: HEK-Blue cells (HEK293-derived reporter line)
T2 sequence (Q9NR97 27-1041): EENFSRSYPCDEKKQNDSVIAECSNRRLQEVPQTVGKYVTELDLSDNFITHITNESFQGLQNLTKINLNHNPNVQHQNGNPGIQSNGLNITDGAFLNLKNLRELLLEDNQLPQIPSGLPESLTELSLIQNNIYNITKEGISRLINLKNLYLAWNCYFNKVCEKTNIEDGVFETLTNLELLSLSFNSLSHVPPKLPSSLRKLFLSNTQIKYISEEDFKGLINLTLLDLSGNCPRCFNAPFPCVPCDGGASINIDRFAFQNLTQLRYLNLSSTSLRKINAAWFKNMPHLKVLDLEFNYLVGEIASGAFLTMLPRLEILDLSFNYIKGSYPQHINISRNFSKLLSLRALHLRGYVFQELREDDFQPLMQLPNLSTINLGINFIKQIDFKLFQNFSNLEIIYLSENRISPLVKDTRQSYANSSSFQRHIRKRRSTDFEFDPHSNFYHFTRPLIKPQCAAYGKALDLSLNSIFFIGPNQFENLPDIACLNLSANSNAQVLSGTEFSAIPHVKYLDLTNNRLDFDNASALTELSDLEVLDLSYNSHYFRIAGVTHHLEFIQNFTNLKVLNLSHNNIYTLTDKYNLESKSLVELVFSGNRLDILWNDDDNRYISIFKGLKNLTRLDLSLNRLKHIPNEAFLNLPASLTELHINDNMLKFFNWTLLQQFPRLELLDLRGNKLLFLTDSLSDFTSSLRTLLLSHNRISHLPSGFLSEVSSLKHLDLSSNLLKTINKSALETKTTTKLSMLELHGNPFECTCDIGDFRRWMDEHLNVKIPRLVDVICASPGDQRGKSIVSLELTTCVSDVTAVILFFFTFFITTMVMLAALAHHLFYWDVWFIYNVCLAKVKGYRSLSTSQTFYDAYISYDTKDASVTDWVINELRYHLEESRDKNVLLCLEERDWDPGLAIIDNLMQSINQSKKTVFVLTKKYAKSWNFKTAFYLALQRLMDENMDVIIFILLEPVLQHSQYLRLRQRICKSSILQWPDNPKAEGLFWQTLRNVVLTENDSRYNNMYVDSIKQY
Procedure, shortened: as §1

[3] = target: T3, human TLR9 (Homo sapiens, UniProt Q9NR96); assay: TLR9 inhibition reporter assay (HEK-Blue cells, SEAP reporter, ODN2006 stimulation); conditions: HEK-Blue cells overexpressing human TLR9, SEAP reporter, ODN2006 5 nM
T3 construct: host or cells: HEK-Blue cells (HEK293-derived reporter line)
T3 sequence (Q9NR96 26-1032): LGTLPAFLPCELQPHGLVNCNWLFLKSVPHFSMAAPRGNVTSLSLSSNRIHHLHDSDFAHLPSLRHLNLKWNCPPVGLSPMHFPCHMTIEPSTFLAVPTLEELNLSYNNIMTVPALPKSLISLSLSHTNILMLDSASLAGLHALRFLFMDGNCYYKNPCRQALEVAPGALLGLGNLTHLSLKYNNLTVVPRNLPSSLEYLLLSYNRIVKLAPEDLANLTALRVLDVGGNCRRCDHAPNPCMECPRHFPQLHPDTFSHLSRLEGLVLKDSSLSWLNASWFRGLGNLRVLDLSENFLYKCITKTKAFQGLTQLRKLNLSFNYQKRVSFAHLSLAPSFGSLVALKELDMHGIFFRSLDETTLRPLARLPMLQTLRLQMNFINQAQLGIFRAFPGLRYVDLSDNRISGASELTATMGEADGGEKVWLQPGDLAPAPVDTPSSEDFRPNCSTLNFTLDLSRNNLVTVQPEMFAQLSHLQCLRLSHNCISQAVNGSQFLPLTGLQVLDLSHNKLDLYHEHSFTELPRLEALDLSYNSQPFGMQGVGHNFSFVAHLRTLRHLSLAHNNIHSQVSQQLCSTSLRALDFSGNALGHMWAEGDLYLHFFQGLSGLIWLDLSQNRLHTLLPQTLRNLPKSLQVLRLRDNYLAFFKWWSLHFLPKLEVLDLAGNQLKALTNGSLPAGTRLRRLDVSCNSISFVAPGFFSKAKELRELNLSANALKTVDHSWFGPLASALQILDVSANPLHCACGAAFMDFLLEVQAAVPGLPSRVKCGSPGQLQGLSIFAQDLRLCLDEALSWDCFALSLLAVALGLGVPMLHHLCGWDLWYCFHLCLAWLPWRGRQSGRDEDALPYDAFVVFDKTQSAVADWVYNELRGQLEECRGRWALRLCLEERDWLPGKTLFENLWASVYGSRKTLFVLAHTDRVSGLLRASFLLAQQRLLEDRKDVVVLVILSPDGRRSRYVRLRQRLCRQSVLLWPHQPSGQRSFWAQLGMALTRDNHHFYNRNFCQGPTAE
Procedure, shortened: as §1

Structure (SMILES)	IC50 [1] [nM]	IC50 [2] [nM]	IC50 [3] [nM]
CC(C)c1c(-c2cn(C)c3ncccc23)[nH]c2ccc(C3CCN(CC(=O)N4CCOCC4)CC3)cc12 [Example 294, 2-(4-(3-isopropyl-2-(1-methyl-1H-pyrrolo[2,3-b]pyridin-3-yl)-1H-indol-5-yl)piperidin-1-yl)-1-morpholinoethan-1-one]	< 100	< 100	1000 to 50000
Cc1cn2cc(-c3[nH]c4ccc(C5CCNCC5)cc4c3C(C)C)cc(C(F)(F)F)c2n1 [Example 137, 6-(3-isopropyl-5-(piperidin-4-yl)-1H-indol-2-yl)-2-methyl-8-(trifluoromethyl)imidazo[1,2-a]pyridine]	< 100	100 to 1000	100 to 1000
CC(C)c1c(-c2cc(C(C)(C)O)c3nccn3c2)[nH]c2ccc(C3CCN(CC(=O)N(C)C)CC3)cc12 [Example 343, 2-(4-(2-(8-(2-hydroxypropan-2-yl)imidazo[1,2-a]pyridin-6-yl)-3-isopropyl-1H-indol-5-yl)piperidin-1-yl)-N,N-dimethylacetamide]	< 100	100 to 1000	100 to 1000
CNC(=O)CN1CCC(c2ccc3[nH]c(-c4cc(C)n5cc(C)nc5c4)c(C(C)C)c3c2)CC1 [Example 352, 2-(4-(2-(2,5-dimethylimidazo[1,2-a]pyridin-7-yl)-3-isopropyl-1H-indol-5-yl)piperidin-1-yl)-N-methylacetamide]	100 to 1000	100 to 1000	100 to 1000
CNCCN1CCC(c2ccc3[nH]c(-c4ccc5c(c4)CCO5)c(C)c3c2)CC1 [Example 669, 2-(4-(2-(2,3-dihydrobenzofuran-5-yl)-3-methyl-1H-indol-5-yl)piperidin-1-yl)-N-methylethan-1-amine]	1000 to 50000	100 to 1000	1000 to 50000
COc1cc(-c2[nH]c3ccc(C4CCN(C(=O)CN(C)C)CC4)cc3c2C(C)C)cn2ccnc12 [Example 558, 2-(dimethylamino)-1-(4-(3-isopropyl-2-(8-methoxyimidazo[1,2-a]pyridin-6-yl)-1H-indol-5-yl)piperidin-1-yl) ethan-1-one]	< 100	< 100	100 to 1000
CC(C)c1c(-c2ccc3[nH]nnc3c2)[nH]c2ccc(C3CCNCC3)cc12 [Example 51, 5-(3-isopropyl-5-(piperidin-4-yl)-1H-indol-2-yl)-1H-benzo[d][1,2,3]triazole]	< 100	< 100	100 to 1000
Cc1ccc(-c2[nH]c3ccc(C4CCN(CC(=O)N(C)C)CC4)cc3c2C(C)C)c2ncnn12 [Example 385, 2-(4-(3-isopropyl-2-(5-methyl-[1,2,4]triazolo[1,5-a]pyridin-8-yl)-1H-indol-5-yl)piperidin-1-yl)-N,N-dimethylacetamide]	< 100	< 100	1000 to 50000
CNCC(=O)N1CCC(c2ccc3[nH]c(-c4cc(C)nc5ccccc45)c(C(C)C)c3c2)CC1 [Example 534, 1-(4-(3-isopropyl-2-(2-methylquinolin-4-yl)-1H-indol-5-yl)piperidin-1-yl)-2-(methylamino)ethan-1-one]	< 100	< 100	1000 to 50000
CNC(=O)CN1CCC(c2ccc3[nH]c(-c4cnc5ccnn5c4)c(C(C)C)c3c2)CC1 [Example 360, 2-(4-(3-isopropyl-2-(pyrazolo[1,5-a]pyrimidin-6-yl)-1H-indol-5-yl)piperidin-1-yl)-N-methylacetamide]	1000 to 50000	> 3130	1000 to 50000
CNCCN1CCC(c2ccc3[nH]c(-c4cccc5cccnc45)c(C)c3c2)CC1 [Example 662, N-methyl-2-(4-(3-methyl-2-(quinolin-8-yl)-1H-indol-5-yl)piperidin-1-yl)ethan-1-amine]	1000 to 50000	> 3130	1000 to 50000
CC(C)c1c(-c2ccnc3[nH]ncc23)[nH]c2ccc(C3CCN(CCCN4CCCCC4)CC3)cc12 [Example 848, 4-(3-isopropyl-5-(1-(3-(piperidin-1-yl)propyl)piperidin-4-yl)-1H-indol-2-yl)-1H-pyrazolo[3,4-b]pyridine]	100 to 1000	100 to 1000	100 to 1000
CC(C)c1c(-c2ccnc3cccnc23)[nH]c2ccc(C3CCNCC3)cc12 [Example 22, 4-(3-isopropyl-5-(piperidin-4-yl)-1H-indol-2-yl)-1,5-naphthyridine]	100 to 1000	< 100	1000 to 50000
CCN(C)CCC(=O)N1CCC(c2ccc3[nH]c(-c4cc(C)c5nnnn5c4)c(C(C)C)c3c2)CC1 [Example 625, 3-(ethyl(methyl)amino)-1-(4-(3-isopropyl-2-(8-methyltetrazolo[1,5-a]pyridin-6-yl)-1H-indol-5-yl)piperidin-1-yl)propan-1-one]	< 100	< 100	1000 to 50000
